In series [1] the test system is intestinal transit of the charcoal. Briefly: Vegetable carbon (charcoal) intestinal transit test in vivo. More on the design: species or system rat. The conditions noted are these: i.v., rat, charcoal test, 2 hours; for ED50: Rattus norvegicus, iv, 2 h, read-out: Antisp. activity in transit test: ED50. How it is done:
B. The vegetable carbon method in vivo (charcoal method) which consists of administering by oral means to rats, which have fasted for 24 hours, 0.3ml/per rate of a mixture consisting of: 10g of charcoal and 5 g of gum arabic suspended in a volume of 100 cc of H2 O as well as at the same time the substance being studied, accordingly as desired, generally i.v., s.c., oral. After two hours the animals are killed and those are taken to be negative in which the charcoal has reached the first portion of the colon and the others positive, in the sense that the substance administered has slowed down the intestinal transit of the charcoal.
In effect the animals treated with a physiological solution (checks) are all negative after two hours.
D. I.T.1 is the therapeutic index under the profile of the antispastic activity in vivo, and it is obtained by recording the DL50 (column 2) with the ED50 of the charcoal test (column 3).

A further series concerns rat. Briefly: Acute toxicity (DL50) i.v. in rat. The settings on record: dose causing death in 50% of the animals. Format: in vivo. How it is done: (§1) In this table (n. 1) there are recorded the compounds described in the examples with their relative serial numbers, the acute toxicity, the antispastic activity observed in two experimental tests, one "in vivo" and one "in vitro". There are moreover recorded two therapeutic indices which take account of the toxicity of these compounds in relation to their in vivo and in vitro activity. More precisely:
(§2) A. DL50 which, as is known, is the quantity of the substance expressed in mg/kg of animal weight, capable of causing death in 50% of the animals treated.

For series [2], the system named is ileum of a cavy (BaCl2 spasm). Briefly: Antispastic activity in vitro, Magnus method, cavy ileum stimulated with BaCl2. Format: cell-based. The settings on record: ratio to papaverine = 1; Table 1; 37°. How it is done:
C. The method in vitro is that of Magnus, with the ileum of the cavy, and is in common use for all evaluations. It consists of extracting the ileum from the cavy and placing it in a receptacle which contains nutritive liquid, suitably oxygenated, and registering the movements of the organ which remains alive for several hours if maintained at a temperature of 37°. According to the traditional method followed by us, BaCl2 is put into the bath as a spasmisant: the reaction is a violent contraction of the organ. This contraction can be prevented by adding beforehand pharmaceuticals which inhibit spasms, and in this case our compounds.
The values recorded are expressed as relation between papaverine and the ED50 of our compounds. (As is known, the ED50 is the dose which results in a 50% reduction in spastic contraction).
E. I.T.2 is the therapeutic index under the profile of the antispastic activity in vitro and is given by the product between the in vitro antispastic activity index (column 4) and the corresponding DL50 (column 2).

The nature of series [3]: Acute toxicity (DL50) i.v. in rat. It is filed as in vivo. The conditions noted are these: in vivo, iv, dose causing death in 50% of the animals. How it is done:
as §1, §2

Turning to `CCCN(CCC)C(=O)C(Cc1ccc(OCCCN(C)C)cc1)NC(=O)c1ccccc1` (racemic) [CR 607, O-(3-dimethylamino-propyl)-N-benzoyl-DL-tyrosil-di-n-propylamide], the “Antisp. activity in transit test: ED50” value in series [1] (120 min) stood at 26.7 mg/kg. For the same compound, the “DL50 in a rat” value in the series with rat is reported as 32.4 mg/kg. In addition, the “Antisp. activity in vitro on the ileum of a cavy by Stim. BaCl2: ED50 pap./ED50 CR” value (from here on “Antisp. activity in vitro on the ileum”) in series [2] is reported as 0.41.

Regarding `CCCN(CCC)C(=O)C(Cc1ccc(OCCN(C)C)cc1)NC(=O)c1ccc(C)cc1` (racemic) [CR 615, O-(2-dimethylamino-ethyl)-N-toluoyl-DL-tyrosil-di-n-propylamide], the “Antisp. activity in transit test: ED50” value in series [1] was “inactive”. Further, in the series on rat, the “DL50 in a rat” value was 48.1 mg/kg. In series [2], the “Antisp. activity in vitro on the ileum” value is reported as 0.69.

Consider `CCCN(CCC)C(=O)C(Cc1ccc(OCCN2CCCC2)cc1)NC(=O)c1ccc(C)cc1` (racemic) [CR 650, O-(2-pyrrolidil-N'-ethyl)-N-toluoyl-DL-tyrosil-di-n-propylamide], for which the “Antisp. activity in transit test: ED50” value in series [1] was determined as 18.4 mg/kg. For the same compound, the “DL50 in a rat” value with rat came to 17.5 mg/kg. In addition, the “Antisp. activity in vitro on the ileum” value in series [2] is 1.17.

The term ED50 denotes the dose at which the effect has come halfway, by size or by number of responders. In general, LD50 refers to the dose expected to kill half of the subjects tested. Higher therefore signals a less toxic substance. Consider `CCCCNC(=O)C(Cc1ccc(OCCN2CCN(C)CC2)cc1)NC(=O)c1ccc(Cl)cc1` (racemic) [CR 730, O-[2-(N"-methyl-piperazine)-N'-ethyl]-N-(p-chloro-benzoyl)-DL-tyrosil-n-butylamide], for which the median effective dose (ED50) in series [1] was 30.2 mg/kg. The compound further displayed a median lethal dose (LD50) in series [3] of 50 mg/kg. For the same compound, the “Antisp. activity in vitro on the ileum” value in series [2] is 0.99.

With `CCCN(CCC)C(=O)C(Cc1ccc(OCCN2CCN(C)CC2)cc1)NC(=O)c1ccc(Cl)cc1` (racemic) [CR 733, O-[2'-(N"-methyl-piperazine)-N'-ethyl]-N-(p-chloro-benzoyl)-DL-tyrosil-di-n-propylamide], the ED50 in series [1] amounted to 16.7 mg/kg. In series [3], this compound yielded a median lethal dose (LD50) of 43.5 mg/kg. In series [2], the “Antisp. activity in vitro on the ileum” value is listed as 1.31.

As to `CCN(CC)CCOc1ccc(CC(NC(=O)c2ccccc2)C(=O)N(CC)CC)cc1` (racemic) [CR 734, O-(2-diethylamino-ethyl)-N-benzoyl-DL-tyrosil-di-ethylamide], the ED50 in series [1] stood at 33.4 mg/kg. This compound also yielded a 50% lethal dose (LD50) in series [3] of 62.2 mg/kg. Also, the “Antisp. activity in vitro on the ileum” value in series [2] came to 0.52.

As to `CCN(CC)C(=O)C(Cc1ccc(OCCN2CCN(C)CC2)cc1)NC(=O)c1ccccc1` (racemic) [CR 736, O-[2-(N"-methyl-piperazine)-N'-ethyl]-N-benzoyl-DL-tyrosildiethylamide], the ED50 in series [1] came out at 39.6 mg/kg. The compound also showed an LD50 in series [3] of 102 mg/kg. The “Antisp. activity in vitro on the ileum” value in series [2] came to 0.04.

Consider `CCN(CC)CCOc1ccc(CC(NC(=O)c2ccccc2)C(=O)N(C)C)cc1` (racemic) [CR 738, O-(2-diethylamino-ethyl)-N-benzoyl-DL-tyrosil-di-methylamide], for which the median effective dose (ED50) in series [1] came out at 50.6 mg/kg. In series [3], the 50% lethal dose (LD50) was determined as 85.3 mg/kg. In series [2], the “Antisp. activity in vitro on the ileum” value was 0.14.

Consider `CCN(CC)CCOc1ccc(CC(NC(=O)c2ccccc2)C(N)=O)cc1` (racemic) [CR 740, O-(2-dietylamino-ethyl)-N-benzoyl-DL-tyrosil-amide], for which, in series [1], the “Antisp. activity in transit test: ED50” value was “inactive”. Also, the 50% lethal dose (LD50) in series [3] stood at 102 mg/kg. The “Antisp. activity in vitro on the ileum” value in series [2] came to 0.36.

In the case of `CCCCNC(=O)C(Cc1ccc(OCCN(CC)CC)cc1)NC(=O)c1ccccc1` (racemic) [CR 786, O-(2-diethylamine-ethyl)-N-benzoyl-DL-tyrosil-n-butylamide], in series [1], the ED50 came out at 34.3 mg/kg. Also, the median lethal dose (LD50) in series [3] amounted to 38 mg/kg. The “Antisp. activity in vitro on the ileum” value in series [2] is listed as 0.17.

Turning to `CCCCNC(=O)C(Cc1ccc(OCCN2CCCC2)cc1)NC(=O)c1ccc(Cl)cc1` (racemic) [CR 812, O-(2'-pyrrolidil-N'-ethyl)-N-(p-chloro-benzoyl)-DL-tyrosil-n-butylamide], the median effective dose (ED50) in series [1] is 21 mg/kg. In addition, the LD50 in series [3] turned out to be 27 mg/kg. Further, the “Antisp. activity in vitro on the ileum” value in series [2] was 1.03.

`CCCNC(=O)C(Cc1ccc(OCCN2CCCC2)cc1)NC(=O)c1ccccc1` (racemic) [CR 821, O-(2-pyrrolidil-N'-ethyl)-N-benzoyl-DL-tyrosil-n-propylamide]: the ED50 in series [1] was 15.6 mg/kg. The compound further came in with an LD50 in series [3] of 53 mg/kg. The “Antisp. activity in vitro on the ileum” value in series [2] is 0.13.

In the case of `CCCN(CCC)CCOc1ccc(CC(NC(=O)c2ccccc2)C(=O)N(CCC)CCC)cc1` (racemic) [CR 823, O-(2-di-n-propylamino-ethyl)-N-benzoyl-DL-tyrosil-di-n-propylamide], in series [1], the 50% effective dose (ED50) was determined as 16.2 mg/kg. This compound also had an LD50 in series [3] of 23 mg/kg. Moreover, the “Antisp. activity in vitro on the ileum” value in series [2] was 1.48.

`CCCCCCNC(=O)C(Cc1ccc(OCCN2CCCC2)cc1)NC(=O)c1ccccc1` (racemic) [CR 825, O-(2-pyrrolidil-N'-ethyl)-N-benzoyl-DL-tyrosil-n-hexylamide]: the ED50 in series [1] came out at 14.8 mg/kg. The same compound displayed an LD50 in series [3] of 42 mg/kg. Also, the “Antisp. activity in vitro on the ileum” value in series [2] turned out to be 1.8.

Turning to `CCCN(CCC)C(=O)C(Cc1ccc(OCCN(CC)CC)cc1)NC(=O)OCc1ccccc1` (racemic) [CR 832, O-(2-diethylamino-ethyl)-N-carbobenzoxy-DL-tyrosil-di-n-propylamide], the ED50 in series [1] was 16.3 mg/kg. In series [3], this compound yielded a 50% lethal dose (LD50) of 32.4 mg/kg. In series [2], the “Antisp. activity in vitro on the ileum” value was 1.40.

With `CN(C)CCOc1ccc(C[C@H](NC(=O)OCc2ccccc2)C(=O)N2CCOCC2)cc1` [CR 606, O-(2-dimethylamino-ethyl)-N-carbobenzoxy-L-tyrosil-morpholylamide], the “Antisp. activity in transit test: ED50” value in series [1] was “inactive”. The same compound had an LD50 in series [3] of 128 mg/kg. Moreover, the “Antisp. activity in vitro on the ileum” value in series [2] amounted to 0.19.

Consider `CCNC(=O)C(Cc1ccc(OCCN(C)C)cc1)NC(=O)OCc1ccccc1` [CR 610, O-(2-dimethylamino-ethyl)-N-carbobenzoxy-L-tyrosil-ethylamide], for which the ED50 in series [1] was determined as 58.1 mg/kg. Besides, in series [3], the LD50 turned out to be 139 mg/kg. The “Antisp. activity in vitro on the ileum” value in series [2] came to 0.13.

Regarding `CN(C)CCOc1ccc(C[C@H](NC(=O)OCc2ccccc2)C(=O)NCc2ccccc2)cc1` [CR 612, O-(2-dimethylamino-ethyl)-N-carbobenzoxy-L-tyrosil-benzylamide], in series [1], the ED50 is 23 mg/kg. The compound also yielded a 50% lethal dose (LD50) in series [3] of 87.7 mg/kg. In addition, the “Antisp. activity in vitro on the ileum” value in series [2] was determined as 0.35.

Turning to `CCCN(CCC)C(=O)C(Cc1ccc(OCCN(C)C)cc1)NC(=O)OCc1ccc([N+](=O)[O-])cc1` (centres unmarked) [CR 613], the ED50 in series [1] amounted to 58.7 mg/kg. The compound further registered an LD50 in series [3] of 100 mg/kg. Moreover, the “Antisp. activity in vitro on the ileum” value in series [2] was found to be 0.68.

In the case of `CCCN(CCC)C(=O)C(Cc1ccc(OCCN(CC)CC)cc1)NC(=O)c1ccccc1` [CR 804, O-(2-diethylamino-ethyl)-N-benzoyl-L-tyrosil-di-n-propylamide], in series [1], the ED50 is 16.1 mg/kg. This compound returned an LD50 in series [3] of 33.5 mg/kg. In addition, in series [2], the “Antisp. activity in vitro on the ileum” value turned out to be 0.89.

For `CCCN(CCC)C(=O)C(Cc1ccc(OCCN(CC)CC)cc1)NC(=O)OCc1ccccc1` [CR 830, O-(2-diethylamino-ethyl)-N-carbobenzoxy-L-tyrosil-di-n-propylamide], the ED50 in series [1] was 17.3 mg/kg. This compound registered an LD50 in series [3] of 31.5 mg/kg. Also, the “Antisp. activity in vitro on the ileum” value in series [2] is given as 1.49.

On to `CCCN(CCC)C(=O)C(Cc1ccc(OCCN(CC)CC)cc1)NC(=O)c1ccc(Cl)cc1` [CR 831, O-(2-diethylamino-ethyl)-N-(p-chloro-benzoyl)-L-tyrosil-din-propylamide], for which the 50% effective dose (ED50) in series [1] was 24.4 mg/kg. In series [3], this compound showed a 50% lethal dose (LD50) of 35 mg/kg. Further, the “Antisp. activity in vitro on the ileum” value in series [2] is on record as 1.30.

With “O-(2-diisopropylamino-ethyl)-N-toluoyl-DL-tyrosil-n-butylamide [CR 709]”, the “Antisp. activity in transit test: ED50” value in series [1] came to 36.1 mg/kg. Further, the “DL50 in a rat” value in the series on rat is reported as 40 mg/kg.

(Values after patent US4004008A, “O-Tertiary amino-alkyl-N-benzoyl tyrosil amides” (priority 1974, dated 1977).)
